Activity calls are given as the source filed them.
Experiments:
[1] = HEp-2 cell cytotoxicity, dose response, cytotoxicity control for RSV inhibitor project, HTS (AID 2410); type: functional; details: human respiratory syncytial virus
[2] = cells
[3] = test system: Vero; test: West Nile virus antiviral activity, cell-based, CPE readout (AID 1621); type: functional; details: Chlorocebus sabaeus
[4] = test system: Vero; test: cells; type: functional, cell-based; details: Chlorocebus sabaeus
[5] = test system: Vero; test: host cell cytotoxicity of antiviral hits, dose response, cytotoxicity control for West Nile virus antiviral project, secondary assay (AID 1650); type: functional; details: Chlorocebus sabaeus
[6] = biological target: Diphosphomevalonate decarboxylase (Streptococcus pneumoniae serotype 2 (strain D39 / NCTC 7466), UniProt Q9FD53); test: S. pneumoniae DPM-DC inhibition retest, confirmation, biochemical, cuvette format, coupled NADH fluorescence (AID 1028); type: functional
Sequence of Diphosphomevalonate decarboxylase (Q9FD53 whole entry): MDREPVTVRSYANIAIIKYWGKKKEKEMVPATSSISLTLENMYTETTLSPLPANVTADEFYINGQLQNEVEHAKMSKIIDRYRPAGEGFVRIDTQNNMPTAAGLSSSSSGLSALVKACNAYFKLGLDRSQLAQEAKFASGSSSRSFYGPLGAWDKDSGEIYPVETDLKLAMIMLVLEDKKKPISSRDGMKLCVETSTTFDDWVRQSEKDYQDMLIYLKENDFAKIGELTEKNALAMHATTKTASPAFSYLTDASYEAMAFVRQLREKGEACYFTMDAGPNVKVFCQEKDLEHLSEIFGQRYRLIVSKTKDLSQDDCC

[7] = biological target: Ephrin type-A receptor 4 (Mus musculus, UniProt Q03137); test: inhibitors of EphA4 binding to KYL peptide, primary screen, biochemical, colorimetric, mouse EphA4 (AID 689); type: functional
Sequence of Ephrin type-A receptor 4 (Q03137 whole entry): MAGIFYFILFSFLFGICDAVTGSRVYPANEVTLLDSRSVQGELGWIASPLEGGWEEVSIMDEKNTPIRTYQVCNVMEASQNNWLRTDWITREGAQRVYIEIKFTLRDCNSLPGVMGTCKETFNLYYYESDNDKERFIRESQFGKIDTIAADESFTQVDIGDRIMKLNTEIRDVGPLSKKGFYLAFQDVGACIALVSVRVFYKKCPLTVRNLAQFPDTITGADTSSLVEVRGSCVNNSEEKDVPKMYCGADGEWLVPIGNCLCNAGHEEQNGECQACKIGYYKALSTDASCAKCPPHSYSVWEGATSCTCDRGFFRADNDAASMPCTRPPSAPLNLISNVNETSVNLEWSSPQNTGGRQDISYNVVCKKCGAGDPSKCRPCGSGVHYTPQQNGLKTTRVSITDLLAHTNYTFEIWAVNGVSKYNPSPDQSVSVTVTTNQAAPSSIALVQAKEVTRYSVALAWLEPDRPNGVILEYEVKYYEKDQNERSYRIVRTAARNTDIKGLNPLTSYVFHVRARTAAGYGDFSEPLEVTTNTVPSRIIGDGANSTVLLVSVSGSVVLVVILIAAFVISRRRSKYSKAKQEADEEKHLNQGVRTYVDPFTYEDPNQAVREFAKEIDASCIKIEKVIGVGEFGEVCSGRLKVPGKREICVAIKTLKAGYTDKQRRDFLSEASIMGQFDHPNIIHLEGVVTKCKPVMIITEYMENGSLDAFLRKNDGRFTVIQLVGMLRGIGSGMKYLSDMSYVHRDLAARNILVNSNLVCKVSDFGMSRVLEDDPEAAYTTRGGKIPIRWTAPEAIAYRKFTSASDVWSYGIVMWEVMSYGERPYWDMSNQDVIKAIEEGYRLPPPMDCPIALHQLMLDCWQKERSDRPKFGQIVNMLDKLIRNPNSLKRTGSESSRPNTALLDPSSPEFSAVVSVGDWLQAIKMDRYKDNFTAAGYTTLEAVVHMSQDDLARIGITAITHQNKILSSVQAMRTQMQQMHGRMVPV

[8] = biological target: T1, High affinity choline transporter 1 (Homo sapiens, UniProt Q9GZV3); test: CHT inhibitors, dose response, cell-based, 5-point CRC, membrane potential dye (AID 504840); type: functional
T1 sequence (Q9GZV3 whole entry): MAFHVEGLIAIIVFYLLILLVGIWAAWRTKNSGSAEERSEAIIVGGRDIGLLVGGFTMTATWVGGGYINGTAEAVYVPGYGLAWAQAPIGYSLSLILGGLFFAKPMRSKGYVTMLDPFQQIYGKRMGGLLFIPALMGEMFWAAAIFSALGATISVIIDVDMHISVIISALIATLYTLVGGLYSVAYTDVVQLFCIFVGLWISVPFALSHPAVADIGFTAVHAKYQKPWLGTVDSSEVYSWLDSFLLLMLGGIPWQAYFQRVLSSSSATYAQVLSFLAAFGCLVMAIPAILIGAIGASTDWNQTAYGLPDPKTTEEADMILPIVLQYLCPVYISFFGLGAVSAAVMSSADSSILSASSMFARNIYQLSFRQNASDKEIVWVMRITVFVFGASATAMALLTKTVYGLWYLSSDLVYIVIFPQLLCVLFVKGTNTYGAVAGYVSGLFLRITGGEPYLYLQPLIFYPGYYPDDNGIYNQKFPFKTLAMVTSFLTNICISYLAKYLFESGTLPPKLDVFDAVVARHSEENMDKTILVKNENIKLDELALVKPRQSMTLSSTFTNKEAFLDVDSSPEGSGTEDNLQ

[9] = biological target: T2, Cytochrome P450 1A2 (Homo sapiens, UniProt P05177);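 further: PubChem cytochrome P450 panel assay, CYP1A2 panel member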
T2 sequence (P05177 whole entry): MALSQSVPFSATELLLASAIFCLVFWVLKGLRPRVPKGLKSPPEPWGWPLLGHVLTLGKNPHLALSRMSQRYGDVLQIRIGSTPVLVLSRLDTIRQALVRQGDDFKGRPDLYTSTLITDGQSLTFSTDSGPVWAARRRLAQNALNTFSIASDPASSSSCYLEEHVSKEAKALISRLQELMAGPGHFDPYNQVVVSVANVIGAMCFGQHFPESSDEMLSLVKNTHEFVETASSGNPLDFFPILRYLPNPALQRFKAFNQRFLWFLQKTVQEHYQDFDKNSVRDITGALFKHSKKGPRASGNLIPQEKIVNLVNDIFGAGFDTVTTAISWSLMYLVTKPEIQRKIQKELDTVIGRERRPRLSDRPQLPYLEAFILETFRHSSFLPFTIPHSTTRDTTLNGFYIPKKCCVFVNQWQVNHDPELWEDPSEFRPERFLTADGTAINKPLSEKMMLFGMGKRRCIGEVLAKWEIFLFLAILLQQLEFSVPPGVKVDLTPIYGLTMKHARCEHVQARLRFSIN

[10] = biological target: T3, Tyrosine-protein phosphatase non-receptor type 7 (Homo sapiens, UniProt P35236); test: inhibitors of human HePTP phosphatase, […], biochemical, absorbance, leukemia target (AID 521); type: functional
T3 sequence (P35236 whole entry): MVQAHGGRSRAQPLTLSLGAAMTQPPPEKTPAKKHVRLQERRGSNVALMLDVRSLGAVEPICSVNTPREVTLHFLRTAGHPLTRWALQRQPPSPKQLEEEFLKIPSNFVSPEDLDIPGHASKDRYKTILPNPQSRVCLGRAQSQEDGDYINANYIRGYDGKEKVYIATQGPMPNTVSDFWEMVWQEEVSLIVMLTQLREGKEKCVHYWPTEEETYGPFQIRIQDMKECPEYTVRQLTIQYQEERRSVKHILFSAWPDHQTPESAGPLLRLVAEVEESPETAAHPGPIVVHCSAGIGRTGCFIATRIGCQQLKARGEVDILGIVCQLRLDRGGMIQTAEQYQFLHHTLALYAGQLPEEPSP

[11] = Luminescence Cell-Based Dose Confirmation HTS to Identify Inhibitors of Platelet Dense Granule Release. [Related pubchem assays: 1663 (Primary HTS), 1678 (Summary of Project)]; type: functional
[12] = Fluorescence Cell-Based Dose Response to Identify Inhibitors of Thrombin Receptor-Activating Peptide SFLLRN-Mediated P-Selectin Induction on Platelets. [Related pubchem assays: 1663 (Primary HTS), 1889 (retest at dose ), 1891 (counterscreen), 1678 (Project Summary)]; type: functional
[13] = biological target: Luciferin 4-monooxygenase (Photinus pyralis, UniProt P08659); test: firefly luciferase enzyme inhibitors, dose response, biochemical, luminescence (AID 1891)
Sequence of Luciferin 4-monooxygenase (P08659 whole entry): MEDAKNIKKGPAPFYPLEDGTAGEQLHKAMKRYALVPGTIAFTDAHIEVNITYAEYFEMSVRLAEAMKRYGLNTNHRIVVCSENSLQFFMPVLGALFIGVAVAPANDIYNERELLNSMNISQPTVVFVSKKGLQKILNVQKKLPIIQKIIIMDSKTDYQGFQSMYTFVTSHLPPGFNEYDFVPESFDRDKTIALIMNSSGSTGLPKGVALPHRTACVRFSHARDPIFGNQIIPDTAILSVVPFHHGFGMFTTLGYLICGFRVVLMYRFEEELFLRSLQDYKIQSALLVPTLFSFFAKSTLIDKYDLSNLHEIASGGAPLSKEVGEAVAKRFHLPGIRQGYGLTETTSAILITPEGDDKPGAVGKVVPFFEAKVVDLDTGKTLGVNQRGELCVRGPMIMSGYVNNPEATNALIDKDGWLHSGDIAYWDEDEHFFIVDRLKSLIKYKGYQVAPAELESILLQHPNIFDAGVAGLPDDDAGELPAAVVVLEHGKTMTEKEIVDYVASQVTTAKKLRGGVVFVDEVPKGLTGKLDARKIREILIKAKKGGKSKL

[14] = Luminescent dose response cell-based high throughput screening assay for inhibitors of the Janus kinase 2 mutant JAK2V617F. [Related pubchem assays: 1446 (Primary screen.), 1521 (Confirmation assay.), 1486 (Counter screen.)]; type: functional
[15] = inhibitors of intracellular T. cruzi replication, confirmation, NIH3T3 host cells, beta-gal luminescence (AID 2044); type: functional, cell-based;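 further: intracellular parasites grown in NIH/3T3 mouse fibroblasts as host cells; luminescent beta-galactosidase reporter signal from transgenic T. cruzi replicating inside host cells; inhibitors lower the luminescence signal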
[16] = Luminescence Cell-Based Dose Retest to Confirm Inhibitors of Cancer Stem Cells. [Related pubchem assays (depositor defined):AID2717, AID2721]; type: functional; details: Homo sapiens
[17] = cytotoxicity toward NIH3T3 fibroblasts, dose response, counter-screen, cell-based, ATP luminescence, mouse fibroblasts (AID 2010); type: functional;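 further: cells exposed to compound for about 90 hours before reading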
[18] = biological target: DNA repair and recombination protein RAD54-like (Homo sapiens, UniProt Q92698); test: inhibitors of human RAD54 branch migration, confirmation, biochemical, fluorescence, cherry-picked samples, dose series (AID 651657); type: functional
Sequence of DNA repair and recombination protein RAD54-like (Q92698 whole entry): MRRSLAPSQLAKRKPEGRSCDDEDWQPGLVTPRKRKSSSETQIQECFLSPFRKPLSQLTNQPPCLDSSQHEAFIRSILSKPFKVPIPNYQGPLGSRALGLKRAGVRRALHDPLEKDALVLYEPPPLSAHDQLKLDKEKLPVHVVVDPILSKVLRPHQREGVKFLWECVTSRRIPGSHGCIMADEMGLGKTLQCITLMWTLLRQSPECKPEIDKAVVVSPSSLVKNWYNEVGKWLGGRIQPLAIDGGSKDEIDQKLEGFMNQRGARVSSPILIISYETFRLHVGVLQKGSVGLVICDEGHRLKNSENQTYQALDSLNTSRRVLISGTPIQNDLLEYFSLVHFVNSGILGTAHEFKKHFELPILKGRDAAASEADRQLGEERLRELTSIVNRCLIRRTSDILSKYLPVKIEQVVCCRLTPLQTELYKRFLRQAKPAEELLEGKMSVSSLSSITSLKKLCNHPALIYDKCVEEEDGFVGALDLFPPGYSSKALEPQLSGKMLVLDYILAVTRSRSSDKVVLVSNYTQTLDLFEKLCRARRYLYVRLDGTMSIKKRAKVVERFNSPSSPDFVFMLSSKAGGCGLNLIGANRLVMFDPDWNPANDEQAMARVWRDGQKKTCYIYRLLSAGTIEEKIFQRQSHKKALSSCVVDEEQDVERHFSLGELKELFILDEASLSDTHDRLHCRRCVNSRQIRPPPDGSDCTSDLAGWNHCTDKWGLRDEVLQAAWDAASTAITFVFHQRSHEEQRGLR

[19] = biological target: T4, Mannose-6-phosphate isomerase (Homo sapiens, UniProt P34949); test: human PMI inhibitors, high substrate, primary screen, biochemical, fluorescence intensity, high mannose 6-phosphate (AID 1220)
T4 sequence (P34949 whole entry): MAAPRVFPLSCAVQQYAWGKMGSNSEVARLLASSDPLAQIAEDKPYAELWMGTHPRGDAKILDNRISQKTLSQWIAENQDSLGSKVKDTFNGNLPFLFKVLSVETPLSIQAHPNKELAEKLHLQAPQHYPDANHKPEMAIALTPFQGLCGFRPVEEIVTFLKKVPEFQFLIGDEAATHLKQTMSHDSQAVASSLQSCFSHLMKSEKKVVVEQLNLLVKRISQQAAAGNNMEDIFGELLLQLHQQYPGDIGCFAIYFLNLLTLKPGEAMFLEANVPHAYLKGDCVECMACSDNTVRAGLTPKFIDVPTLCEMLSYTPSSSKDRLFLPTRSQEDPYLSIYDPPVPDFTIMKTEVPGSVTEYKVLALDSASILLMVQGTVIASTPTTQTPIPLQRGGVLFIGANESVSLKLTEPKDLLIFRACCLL

[20] = M. tuberculosis growth inhibition, HTS (AID 449762); type: functional
[21] = biological target: T5, Replicative DNA helicase DnaB (Mycobacterium tuberculosis, UniProt P9WMR3); test: DnaB intein splicing inhibitors, dose response, biochemical, cell-free fluorescence (AID 449749); type: functional
T5 sequence (P9WMR3 whole entry): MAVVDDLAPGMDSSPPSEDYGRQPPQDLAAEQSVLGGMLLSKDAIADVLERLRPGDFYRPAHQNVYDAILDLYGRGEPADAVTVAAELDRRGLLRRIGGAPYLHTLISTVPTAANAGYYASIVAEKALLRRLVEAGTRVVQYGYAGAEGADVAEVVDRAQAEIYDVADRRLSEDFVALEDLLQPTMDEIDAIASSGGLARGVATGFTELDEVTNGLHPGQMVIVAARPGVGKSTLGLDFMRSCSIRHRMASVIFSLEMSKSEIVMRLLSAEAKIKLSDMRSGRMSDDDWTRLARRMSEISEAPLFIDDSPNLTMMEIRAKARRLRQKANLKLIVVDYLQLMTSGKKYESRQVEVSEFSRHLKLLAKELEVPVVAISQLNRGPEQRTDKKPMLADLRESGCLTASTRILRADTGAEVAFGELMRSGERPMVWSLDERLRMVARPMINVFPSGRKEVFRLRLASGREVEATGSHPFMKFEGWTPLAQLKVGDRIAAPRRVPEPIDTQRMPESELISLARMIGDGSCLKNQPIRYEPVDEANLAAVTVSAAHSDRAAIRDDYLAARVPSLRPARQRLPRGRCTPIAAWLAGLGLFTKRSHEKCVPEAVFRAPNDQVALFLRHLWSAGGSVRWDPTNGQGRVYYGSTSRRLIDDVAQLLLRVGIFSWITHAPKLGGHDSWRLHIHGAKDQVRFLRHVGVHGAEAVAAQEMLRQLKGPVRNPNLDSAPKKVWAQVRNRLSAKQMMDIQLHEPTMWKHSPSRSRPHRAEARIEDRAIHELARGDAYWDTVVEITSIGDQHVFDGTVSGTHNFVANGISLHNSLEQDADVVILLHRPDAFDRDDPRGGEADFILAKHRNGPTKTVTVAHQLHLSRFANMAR

[22] = biological target: T6, Protein RecA (Mycobacterium tuberculosis, UniProt P9WHJ3); test: Fluorescence Cell-Free Homogeneous Dose Retest to Identify Inhibitors of RecA-Intein Splicing Activity. [Related pubchem assays (depositor defined):AID2097, AID2223, AID489010, AID492950]; type: functional
T6 sequence (P9WHJ3 whole entry): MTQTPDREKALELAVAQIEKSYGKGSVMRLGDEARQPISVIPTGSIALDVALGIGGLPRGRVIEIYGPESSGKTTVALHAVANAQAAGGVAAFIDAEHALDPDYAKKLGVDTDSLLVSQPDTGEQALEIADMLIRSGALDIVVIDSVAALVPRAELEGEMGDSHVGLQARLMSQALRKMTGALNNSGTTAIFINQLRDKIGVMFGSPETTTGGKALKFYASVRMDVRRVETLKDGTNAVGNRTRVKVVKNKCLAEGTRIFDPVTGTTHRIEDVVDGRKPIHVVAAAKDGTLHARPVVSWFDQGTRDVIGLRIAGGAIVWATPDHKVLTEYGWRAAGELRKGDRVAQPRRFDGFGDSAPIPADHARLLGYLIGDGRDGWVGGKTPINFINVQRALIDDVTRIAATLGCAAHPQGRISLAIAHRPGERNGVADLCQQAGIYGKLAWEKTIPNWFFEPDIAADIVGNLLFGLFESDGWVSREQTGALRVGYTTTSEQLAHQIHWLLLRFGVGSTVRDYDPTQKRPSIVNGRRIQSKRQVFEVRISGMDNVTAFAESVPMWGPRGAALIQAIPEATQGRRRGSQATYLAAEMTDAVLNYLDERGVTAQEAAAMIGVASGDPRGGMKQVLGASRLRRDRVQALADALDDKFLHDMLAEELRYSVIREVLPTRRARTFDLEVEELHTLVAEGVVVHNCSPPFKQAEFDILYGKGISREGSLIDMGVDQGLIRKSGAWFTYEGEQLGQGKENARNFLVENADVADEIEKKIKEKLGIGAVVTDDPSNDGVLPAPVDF

With `COC(=O)c1c(-c2ccccc2)csc1NC(=O)c1c(-c2ccccc2)noc1C` the CC50 [1] was 6.35 µM (active), the IC50 [2] was 3.07 µM (active) and the IC50 [3] was 41.3 µM (active). For the same molecule, the IC50 [4] was 0.8 µM (active) and the CC50 [5] was 10.1 µM (active).
For `O=C(NCc1ccco1)c1ccc(-n2sc3ccccc3c2=O)cc1`, the IC50 [6] was 4.68 µM (active).
For `CCn1c(SCc2nc(-c3ccccc3)no2)nnc1-c1cccs1`, the IC50 [7] was > 100 µM (not active) and the IC50 [8] was 15.1 µM (active).
In the case of `Cc1c(NC(=O)CN2C(=O)C3C4C=CC(C4)C3C2=O)c(=O)n(-c2ccccc2)n1C` (stereo not given), the AC50 [9] is reported as 39.8 µM (inconclusive) and the IC50 [10] is reported as > 100 µM (not active).
For `COC(=O)C(C)Sc1nc2c(c(=O)[nH]c(=O)n2C)n1CCCc1ccccc1` (stereo not given), the EC50 [11] was 6.52 µM (active), the EC50 [12] was < 30 µM (active) and the EC50 [13] was > 112 µM (not active). For the same molecule, the IC50 [8] was 12.6 µM (active).
In the case of `CC1CCCN(CCCNC(=O)c2cc3c(Cl)nc4ccccc4c3s2)C1` (stereo not given), the IC50 [14] is reported as 0.934 µM (active), the EC50 [15] is reported as 1.4 µM (active) and the AC50 [16] is reported as 8.01 µM (active). For the same molecule, the EC50 [17] was 6.28 µM (active) and the AC50 [18] was 9.98 µM (active).
With `Cc1cccc(CSc2nc3c(c(-c4cccs4)c2C#N)CN(C)CC3)c1` the IC50 [19] was > 50 µM (not active), the EC50 [15] was 0.101 µM (active) and the EC50 [17] was > 60 µM (not active). The IC50 [20] was > 100 µM (active), the AC50 [21] was 16.5 µM (active) and the EC50 [22] was 0.503 µM (active).
